The target in assay [1] is T1, CDK2/cyclin A2 (Homo sapiens, UniProt P24941).
T1 construct: purchased Carna Biosciences, Inc. QS S Assist CDK2/Cyclin A2_FP Kit
Description: Human CDK2/cyclin A2 inhibitory activity (QS S Assist CDK2/Cyclin A2_FP Kit, IMAP fluorescence polarization). It is filed as biochemical. The conditions noted are these: 50% inhibitory concentration against CDK2/cyclin A2, given as class symbol. The essentials: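 Kinase activity read as fluorescence polarization (485/535 nm) after phosphorylated fluorescent substrate binds IMAP reagent (30 min, RT, dark). Enzyme (2.5 ng/well) reacted 60 min at RT with ATP/substrate/metal in HEPES pH 7.4 buffer with Tween 20 and DTT; no-enzyme wells define 0% activity; IC50 by curve fit.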

Assay [2] concerns the target T2, CDK4/cyclin D3 (Homo sapiens, UniProt P11802).
T2 construct: purchased Carna Biosciences, Inc. QS S Assist CDK4/Cyclin D3_FP Kit
Description: Human CDK4/cyclin D3 inhibitory activity (QS S Assist CDK4/Cyclin D3_FP Kit, IMAP fluorescence polarization). The conditions noted are these: 50% inhibitory concentration against CDK4/cyclin D3, given as class symbol. Format: biochemical. The essentials:
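Percent inhibition, relative to DMSO with and without enzyme, was curve-fitted to give IC50 from polarization (ex 485, em 535 nm). The 45-min room-temperature reaction used 12.5-25 ng/well enzyme, kit ATP/substrate/metal mix, and HEPES pH 7.4 buffer with Tween20 and DTT, followed by 30-min IMAP binding in the dark.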

Each structure is given as a SMILES string.

T2 sequence (P11802 whole entry): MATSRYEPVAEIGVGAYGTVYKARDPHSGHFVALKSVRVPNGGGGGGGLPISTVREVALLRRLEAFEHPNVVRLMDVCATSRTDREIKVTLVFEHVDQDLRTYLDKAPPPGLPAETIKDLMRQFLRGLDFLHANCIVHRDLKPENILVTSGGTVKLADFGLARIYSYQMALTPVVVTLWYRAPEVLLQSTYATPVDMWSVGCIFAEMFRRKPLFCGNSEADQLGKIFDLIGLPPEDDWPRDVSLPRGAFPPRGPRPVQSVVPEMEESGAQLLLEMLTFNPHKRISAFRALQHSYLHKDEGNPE
T2 sequence (P30281 whole entry partner): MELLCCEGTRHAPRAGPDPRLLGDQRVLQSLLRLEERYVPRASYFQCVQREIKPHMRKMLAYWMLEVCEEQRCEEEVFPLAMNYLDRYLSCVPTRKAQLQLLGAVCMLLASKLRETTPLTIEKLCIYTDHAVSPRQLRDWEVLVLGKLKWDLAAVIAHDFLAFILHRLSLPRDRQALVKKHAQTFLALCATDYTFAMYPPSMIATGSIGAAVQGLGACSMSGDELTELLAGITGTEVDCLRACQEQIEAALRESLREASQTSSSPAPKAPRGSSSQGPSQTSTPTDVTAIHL

On to `CC(C)Nc1nc([C@@H](C)O)cc2cnc(Nc3ccc(CN4CCC(C(=O)O)CC4)cn3)nc12` [Compound 770], for which the IC50 is no less than 100 nM in assay [1] and 10 to 100 nM in assay [2].

Take `C[C@@H](O)c1cc2cnc(Nc3ccc(N4CCNCC4=O)cn3)nc2c(NC23CC(C2)C3)n1` [Compound 771]: the concentration for half-maximal inhibition (IC50) is no less than 100 nM in assay [1] and less than 10 nM in assay [2].

As for `CC(C)Nc1nc([C@@H](C)O)cc2cnc(Nc3ccc(O[C@@H]4CCC[C@H]4N)cn3)nc12` [Compound 772], the IC50 in assay [1] was no less than 100 nM; in assay [2], less than 10 nM.

For the molecule `CC(C)Nc1nc([C@@H](C)O)cc2cnc(Nc3ccc(N4CCNC(C(F)(F)F)C4)cn3)nc12` (stereo partly shown) [Compound 777], the IC50 in assay [1] was no less than 100 nM; in assay [2], less than 10 nM.

Turning to `Cc1cc(Nc2ncc3cc([C@@H](C)O)nc(NC(C)C)c3n2)ncc1N1CCNCC1=O` [Compound 780], the IC50 was no less than 100 nM in assay [1] and 10 to 100 nM in assay [2].

For the molecule `CC(CN(C)C)Oc1ccc(Nc2ncc3cc([C@@H](C)O)nc(N[C@H]4CCCOC4)c3n2)nc1` (stereo partly shown) [Compound 781], the half-maximal inhibitory concentration (IC50) in assay [1] was no less than 100 nM; in assay [2], less than 10 nM.

Turning to `C[C@@H](O)c1cc2cnc(Nc3ccc(OC[C@@H]4CCCN4)cn3)nc2c(N[C@H]2CCCOC2)n1` [Compound 782], the IC50 in assay [1] was no less than 100 nM; in assay [2], less than 10 nM.

As to `C[C@@H](O)c1cc2cnc(Nc3ccc(OC[C@H]4CCCN4)cn3)nc2c(N[C@H]2CCCOC2)n1` [Compound 783], the concentration for half-maximal inhibition (IC50) is no less than 100 nM in assay [1] and less than 10 nM in assay [2].

As for `CC(C)Nc1nc([C@@H](C)O)cc2cnc(Nc3ccc(N4CCC5(CCNCC5)C4=O)cn3)nc12` [Compound 784], the 50% inhibitory concentration (IC50) in assay [1] was no less than 100 nM; in assay [2], less than 10 nM.

Regarding `COC[C@@H](C)Nc1nc([C@@H](C)O)cc2cnc(Nc3ccc(OCCN(C)C)cn3)nc12` [Compound 785], the IC50 in assay [1] was no less than 100 nM; in assay [2], less than 10 nM.

Turning to `C[C@@H](O)c1cc2cnc(Nc3ccc(O[C@H]4CC[C@H](N(C)C)CC4)cn3)nc2c(N[C@H]2CCCOC2)n1` [Compound 786], the IC50 in assay [1] is no less than 100 nM; in assay [2], less than 10 nM.

Turning to `C[C@@H](O)c1cc2cnc(Nc3ccc(O[C@H]4CC[C@@H](N(C)C)CC4)cn3)nc2c(N[C@H]2CCCOC2)n1` [Compound 787], the values for the IC50 in assay [1] and in assay [2] were no less than 100 nM and less than 10 nM, respectively.

As for `CC(C)Nc1nc([C@@H](C)O)cc2cnc(Nc3ccc(NC(=O)C4CCCCN4)cn3)nc12` (stereo partly shown) [Compound 788], the IC50 was no less than 100 nM in assay [1] and less than 10 nM in assay [2].

`CC(C)Nc1nc([C@@H](C)O)cc2cnc(Nc3cnc(N4CCNCC4)cn3)nc12` [Compound 789]: the IC50 in assay [1] was no less than 100 nM; in assay [2] it was less than 10 nM.

For `CC(C)Nc1nc([C@@H](C)O)cc2cnc(Nc3ccc(C4CCN(C(C)(C)C(=O)O)CC4)nn3)nc12` [Compound 790], the results for the concentration for half-maximal inhibition (IC50) in assay [1] and in assay [2] were no less than 100 nM and less than 10 nM, respectively.

Consider `C[C@@H](O)c1cc2cnc(Nc3ccc(N4CCNCC4)nn3)nc2c(NC(C)(C)C)n1` [Compound 791], for which the results for the IC50 in assay [1] and in assay [2] were 10 to 100 nM and less than 10 nM, respectively.

Consider `CC(C)Nc1nc([C@@H](C)O)cc2cnc(Nc3ccc(N4CCC(C(=O)O)CC4)nn3)nc12` [Compound 792], for which the IC50 in assay [1] was no less than 100 nM; in assay [2], 10 to 100 nM.

In the case of `CC(C)Nc1nc([C@@H](C)O)cc2cnc(Nc3ccc(N4CCCC(C(=O)O)C4)nn3)nc12` (stereo partly shown) [Compound 793], the IC50 is no less than 100 nM in assay [1] and 10 to 100 nM in assay [2].

Consider `CC(C)Nc1nc([C@@H](C)O)cc2cnc(Nc3ccc(N4CCC(C(C)(C)C(=O)O)CC4)nn3)nc12` [Compound 794], for which the concentration for half-maximal inhibition (IC50) in assay [1] was no less than 100 nM; in assay [2] it was less than 10 nM.

For the molecule `C[C@@H](O)c1cc2cnc(Nc3ccc(N4CCNCC4=O)cn3)nc2c(NC(C)(C)C)n1` [Compound 795], the results for the 50% inhibitory concentration (IC50) in assay [1] and in assay [2] were 10 to 100 nM and less than 10 nM, respectively.

Take `CC(C)Nc1nc([C@@H](C)O)cc2cnc(Nc3ccc(C4CCN(C(C)(C)C(=O)O)CC4)cn3)nc12` [Compound 796]: the 50% inhibitory concentration (IC50) is no less than 100 nM in assay [1] and less than 10 nM in assay [2].

Consider `CC(C)Nc1nc([C@@H](C)O)cc2cnc(Nc3ccc(N4CCC(CC(=O)O)CC4)nn3)nc12` [Compound 797], for which the IC50 was no less than 100 nM in assay [1] and 10 to 100 nM in assay [2].

For `CC(C)Nc1nc([C@@H](C)O)cc2cnc(Nc3ccc(C4COCCN4)cn3)nc12` (stereo partly shown) [Compound 798], the 50% inhibitory concentration (IC50) was no less than 100 nM in assay [1] and less than 10 nM in assay [2].

As for `CNC1CCCC1Oc1ccc(Nc2ncc3cc(C(C)O)nc(NC(C)C)c3n2)nc1` (stereo not shown) [Compound 799], the half-inhibitory concentration (IC50) is no less than 100 nM in assay [1] and less than 10 nM in assay [2].

As to `C[C@@H](O)c1cc2cnc(Nc3ccc(OCC4CNC4)cn3)nc2c(N[C@H]2CCCOC2)n1` [Compound 800], the half-maximal inhibitory concentration (IC50) in assay [1] is no less than 100 nM; in assay [2], less than 10 nM.

Turning to `CNC1CCCC1Oc1ccc(Nc2ncc3cc(C(C)O)nc(NC(C)C)c3n2)nc1` (stereo not shown) [Compound 801], the IC50 in assay [1] is no less than 100 nM; in assay [2] it was less than 10 nM.

Turning to `C[C@@H](O)c1cc2cnc(Nc3ccc(OCC4CCN4)cn3)nc2c(N[C@H]2CCCOC2)n1` (stereo partly shown) [Compound 802], the half-maximal inhibitory concentration (IC50) in assay [1] is no less than 100 nM; in assay [2], less than 10 nM.

`C[C@@H](O)c1cc2cnc(Nc3ccc(O[C@H]4CCNC4)cn3)nc2c(N[C@H]2CCCOC2)n1` [Compound 803]: the IC50 is no less than 100 nM in assay [1] and less than 10 nM in assay [2].

For `CC(C)Nc1nc([C@@H](C)O)cc2cnc(Nc3ccc(N4CCOCC4=O)cn3)nc12` [Compound 804], the IC50 in assay [1] is no less than 100 nM; in assay [2], less than 10 nM.

Turning to `C[C@@H](O)c1cc2cnc(Nc3ccc(O[C@@H]4CCNC4)cn3)nc2c(N[C@H]2CCCOC2)n1` [Compound 805], the IC50 in assay [1] is no less than 100 nM; in assay [2] it was less than 10 nM.

Turning to `O=C(O)C1CCN(Cc2ccc(Nc3ncc4cc(C(F)F)nc(N[C@H]5CCCOC5)c4n3)nc2)CC1` [Compound 806], the concentration for half-maximal inhibition (IC50) in assay [1] is no less than 100 nM; in assay [2] it was less than 10 nM.

On to `CC(C)Nc1nc(C2CCCOC2)cc2cnc(Nc3ccc(N4CCNCC4=O)cn3)nc12` (stereo not shown) [Compound 807], for which the IC50 in assay [1] was no less than 100 nM; in assay [2] it was 10 to 100 nM.

On to `CC(C)Nc1nc([C@@H](C)O)cc2cnc(Nc3ccc(-c4cnn(C5CCNCC5)c4)cn3)nc12` [Compound 808], for which the 50% inhibitory concentration (IC50) in assay [1] is no less than 100 nM; in assay [2], less than 10 nM.

On to `CC(C)Nc1nc([C@@H](C)O)cc2cnc(Nc3ccc(N4CCN(CCO)CCC4=O)cn3)nc12` [Compound 811], for which the IC50 is 10 to 100 nM in assay [1] and less than 10 nM in assay [2].

On to `CCNc1nc([C@@H](C)O)cc2cnc(Nc3ccc(N4CCNCC4=O)cn3)nc12` [Compound 812], for which the IC50 was no less than 100 nM in assay [1] and 10 to 100 nM in assay [2].

`CCCCNc1nc([C@@H](C)O)cc2cnc(Nc3ccc(N4CCNCC4=O)cn3)nc12` [Compound 813]: the IC50 in assay [1] was no less than 100 nM; in assay [2], less than 10 nM.

In the case of `CCCNc1nc([C@@H](C)O)cc2cnc(Nc3ccc(N4CCNCC4=O)cn3)nc12` [Compound 814], the values for the half-inhibitory concentration (IC50) in assay [1] and in assay [2] were no less than 100 nM and less than 10 nM, respectively.

As to `Cc1nc(Nc2ncc3c(Cl)c([C@@H](C)O)nc(NC(C)C)c3n2)ccc1N1CCNCC1=O` [Compound 815], the IC50 in assay [1] was no less than 100 nM; in assay [2], less than 10 nM.

With `CCNc1nc([C@@H](C)OC)cc2cnc(Nc3ccc(CN4CCNCC4)cn3)nc12` [Compound 816], the IC50 was no less than 100 nM in assay [1] and less than 10 nM in assay [2].

Regarding `CCNc1nc([C@@H](C)OC)cc2cnc(Nc3ccc(N4CCNCC4)nn3)nc12` [Compound 817], the IC50 in assay [1] was no less than 100 nM; in assay [2] it was less than 10 nM.

Consider `CCNc1nc(C(F)F)cc2cnc(Nc3ccc(N4CCNCC4=O)cn3)nc12` [Compound 820], for which the IC50 was 10 to 100 nM in assay [1] and less than 10 nM in assay [2].

In the case of `CCCNc1nc(C(F)F)cc2cnc(Nc3ccc(N4CCNCC4=O)cn3)nc12` [Compound 821], the figures for the IC50 in assay [1] and in assay [2] were 10 to 100 nM and less than 10 nM, respectively.

For the molecule `O=C1CNCCN1c1ccc(Nc2ncc3cc(C(F)F)nc(NC4CCOCC4)c3n2)nc1` [Compound 822], the IC50 is 10 to 100 nM in assay [1] and less than 10 nM in assay [2].

Take `O=C1CNCCN1c1ccc(Nc2ncc3cc(C(F)F)nc(NCC4CCOCC4)c3n2)nc1` [Compound 823]: the figures for the IC50 in assay [1] and in assay [2] were no less than 100 nM and 10 to 100 nM, respectively.

Consider `Cc1nc(Nc2ncc3cc(C4CCOC4)nc(NC(C)C)c3n2)ccc1N1CCNCC1=O` (stereo not shown) [Compound 824], for which the IC50 in assay [1] is no less than 100 nM; in assay [2] it was less than 10 nM.

On to `CC(C)Nc1nc([C@@H](C)O)cc2cnc(Nc3ccc(N4CC5CCCN5CC4=O)cn3)nc12` (stereo partly shown) [Compound 825], for which the IC50 in assay [1] is no less than 100 nM; in assay [2], less than 10 nM.

With `CC(C)CNc1nc([C@@H](C)O)cc2cnc(Nc3ccc(N4CCNCC4=O)cn3)nc12` [Compound 826], the half-maximal inhibitory concentration (IC50) in assay [1] is no less than 100 nM; in assay [2], less than 10 nM.

On to `CC(C)CNc1nc([C@@H](C)O)cc2cnc(Nc3ccc(N4CCNCC4)nn3)nc12` [Compound 827], for which the IC50 in assay [1] is no less than 100 nM; in assay [2] it was less than 10 nM.

With `CC(C)Nc1nc([C@@H](C)O)cc2cnc(Nc3ccc(N4CCC(CCC(=O)O)CC4)nn3)nc12` [Compound 828], the IC50 was no less than 100 nM in assay [1] and 10 to 100 nM in assay [2].

For the molecule `CC(C)Nc1nc([C@@H](C)O)cc2cnc(Nc3ccc(C4CCN(CC(=O)O)CC4)cn3)nc12` [Compound 829], the IC50 in assay [1] was no less than 100 nM; in assay [2], less than 10 nM.

What is called IC50 is the concentration that gives 50% inhibition. Read a low IC50 as greater potency.

For the origin of these results see patent US10124004B2, “Pyrido[3,4-d]pyrimidine derivative and pharmaceutically acceptable salt thereof” (Teijin Pharma Limited, priority 2015, dated 2018).
